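Exposure lasted 48 hours, with cells grown in 96-well plates and compounds tested at five concentrations. At the GI50, growth is halved.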 Active and inactive are the calls of the source. Rule as the data show it: active = GI50 up to about 1.1 µM and inactive = higher.
Experiments:
Assay in all cases: growth of human tumour cells (NCI), 48 h
MOLT-4 = test system: MOLT-4
OVCAR-5 = test system: OVCAR-5
RPMI-8226 = test system: RPMI-8226
SF-268 = test system: SF-268
COLO 205 = test system: COLO 205
SW-620 = test system: SW-620
OVCAR-3 = test system: OVCAR-3
UACC-257 = test system: UACC-257
HT-29 = test system: HT-29
EKVX = test system: EKVX
SF-295 = test system: SF-295
LXFL 529 = test system: LXFL 529
K562 = test system: K562
HCC 2998 = test system: HCC 2998
PC-3 = test system: PC-3
MDA-MB-435 = test system: MDA-MB-435
MDA-MB-231 = test system: MDA-MB-231
Hs-578T = test system: Hs-578T
MCF7 = test system: MCF7
T47D = test system: T47D

Row | SMILES | GI50 (MOLT-4) | GI50 (OVCAR-5) | GI50 (RPMI-8226) | GI50 (SF-268) | GI50 (COLO 205) | GI50 (SW-620) | GI50 (OVCAR-3) | GI50 (UACC-257) | GI50 (HT-29) | GI50 (EKVX) | GI50 (SF-295) | GI50 (LXFL 529) | GI50 (K562) | GI50 (HCC 2998) | GI50 (PC-3) | GI50 (MDA-MB-435) | GI50 (MDA-MB-231) | GI50 (Hs-578T) | GI50 (MCF7) | GI50 (T47D)
1 | CC(C)(C)C1=Cc2cc3cc(C(C)(C)C)[nH]c(=O)c3cc2S(=O)(=O)N1 | 28.1 µM (inactive) | 33.7 µM (inactive) | 30.3 µM (inactive) | 26.1 µM (inactive) | 21.5 µM (inactive) | 21 µM (inactive) | 19 µM (inactive) | 25.1 µM (inactive) | 22.9 µM (inactive) | 17.3 µM (inactive) | 28.5 µM (inactive) | 25.2 µM (inactive) | 45.4 µM (inactive) | – | – | – | – | – | – | –
2 | COCC(=O)CP(=O)(OC)OC | > 100 µM (inactive) | > 100 µM (inactive) | > 100 µM (inactive) | > 100 µM (inactive) | > 100 µM (inactive) | > 100 µM (inactive) | > 100 µM (inactive) | > 100 µM (inactive) | > 100 µM (inactive) | > 100 µM (inactive) | > 100 µM (inactive) | > 100 µM (inactive) | > 100 µM (inactive) | – | – | – | – | – | – | –
3 | O=[N+]([O-])c1cccc(C2SCc3nc4ccccc4n32)c1 (stereo unspecified) | 59.4 µM (inactive) | 39.3 µM (inactive) | – | > 100 µM (inactive) | > 100 µM (inactive) | > 100 µM (inactive) | – | 39.3 µM (inactive) | > 100 µM (inactive) | 66.2 µM (inactive) | 73.5 µM (inactive) | 55.8 µM (inactive) | 49.5 µM (inactive) | – | – | – | – | – | – | –
4 | N#CC(NNC(=O)Cc1ccccc1)c1ccc([N+](=O)[O-])cc1 (stereo unspecified) | > 100 µM (inactive) | > 100 µM (inactive) | > 100 µM (inactive) | > 100 µM (inactive) | > 100 µM (inactive) | > 100 µM (inactive) | – | > 100 µM (inactive) | > 100 µM (inactive) | – | > 100 µM (inactive) | > 100 µM (inactive) | > 100 µM (inactive) | – | – | – | – | – | – | –
5 | CC(Oc1ccc(OCC2CCCCC2)cc1)C(=O)OCC(=O)c1ccc(-c2ccccc2)cc1 (stereo unspecified) | > 100 µM (inactive) | – | – | > 100 µM (inactive) | – | – | > 100 µM (inactive) | > 100 µM (inactive) | > 100 µM (inactive) | – | > 100 µM (inactive) | > 100 µM (inactive) | > 100 µM (inactive) | > 100 µM (inactive) | – | – | – | – | – | –
6 | COc1cc([C@H]2c3cc(O)c(OC)cc3C[C@]3(O)[C@@H]2CO[C@@H]3O)ccc1O | > 100 µM (inactive) | > 100 µM (inactive) | > 100 µM (inactive) | > 100 µM (inactive) | > 100 µM (inactive) | > 100 µM (inactive) | > 100 µM (inactive) | > 100 µM (inactive) | > 100 µM (inactive) | > 100 µM (inactive) | > 100 µM (inactive) | – | > 100 µM (inactive) | > 100 µM (inactive) | > 100 µM (inactive) | > 100 µM (inactive) | > 100 µM (inactive) | > 100 µM (inactive) | > 100 µM (inactive) | > 100 µM (inactive)
7 | CCCN(CCC)C1CCc2c(ccc3cc[nH]c23)C1 (stereo unspecified) | 25.2 µM (inactive) | > 100 µM (inactive) | 41 µM (inactive) | 94.2 µM (inactive) | 29.8 µM (inactive) | > 100 µM (inactive) | 61.4 µM (inactive) | 26.7 µM (inactive) | 33.5 µM (inactive) | > 100 µM (inactive) | > 100 µM (inactive) | – | 30.5 µM (inactive) | 23 µM (inactive) | 35 µM (inactive) | 89.3 µM (inactive) | 41.3 µM (inactive) | > 100 µM (inactive) | 77.3 µM (inactive) | > 100 µM (inactive)
8 | O=C1CC(c2cccc(F)c2)Nc2cc3c(cc21)OCO3 (stereo unspecified) | < 0.01 µM (active) | 0.054 µM (active) | < 0.01 µM (active) | 0.0914 µM (active) | 0.0292 µM (active) | 0.0393 µM (active) | 0.0521 µM (active) | 0.0638 µM (active) | 0.0237 µM (active) | < 0.01 µM (active) | 0.042 µM (active) | – | < 0.01 µM (active) | 0.0593 µM (active) | 0.0301 µM (active) | 0.0136 µM (active) | 0.149 µM (active) | < 0.01 µM (active) | 0.0472 µM (active) | > 100 µM (inactive)
9 | COc1ccc2[nH]c3c(c2c1)CCc1c(OC)cccc1-3 | 29.9 µM (inactive) | > 100 µM (inactive) | 51.9 µM (inactive) | > 100 µM (inactive) | > 100 µM (inactive) | > 100 µM (inactive) | > 100 µM (inactive) | > 100 µM (inactive) | > 100 µM (inactive) | > 100 µM (inactive) | > 100 µM (inactive) | – | 53.6 µM (inactive) | > 100 µM (inactive) | > 100 µM (inactive) | > 100 µM (inactive) | > 100 µM (inactive) | 39.7 µM (inactive) | > 100 µM (inactive) | 14.5 µM (inactive)
10 | CC(C)(C)c1cc(OCc2nn3c(Cc4ccccc4)nnc3s2)c(Cl)cc1OCc1nn2c(Cc3ccccc3)nnc2s1 | 8.93 µM (inactive) | 60.8 µM (inactive) | 10.6 µM (inactive) | 55.5 µM (inactive) | 24.7 µM (inactive) | 43.6 µM (inactive) | 15.6 µM (inactive) | 23.6 µM (inactive) | 23.3 µM (inactive) | 12.9 µM (inactive) | 12.8 µM (inactive) | – | 17.3 µM (inactive) | 53.6 µM (inactive) | 20.1 µM (inactive) | 26.4 µM (inactive) | 33.3 µM (inactive) | > 100 µM (inactive) | 22.5 µM (inactive) | 3.43 µM (inactive)
11 | CN(CCc1ccc(Cl)c(Cl)c1)[C@H]1CCCC[C@H]1N1CCCC1 | > 100 µM (inactive) | > 100 µM (inactive) | > 100 µM (inactive) | > 100 µM (inactive) | > 100 µM (inactive) | > 100 µM (inactive) | > 100 µM (inactive) | > 100 µM (inactive) | > 100 µM (inactive) | > 100 µM (inactive) | > 100 µM (inactive) | – | > 100 µM (inactive) | > 100 µM (inactive) | > 100 µM (inactive) | > 100 µM (inactive) | > 100 µM (inactive) | > 100 µM (inactive) | > 100 µM (inactive) | > 100 µM (inactive)
12 | Nc1nc(Cl)cc(NCC2(CO)CC(OCc3ccccc3)C2)n1 (stereo unspecified) | > 10 µM (inactive) | > 100 µM (inactive) | 45.9 µM (inactive) | 14.8 µM (inactive) | > 100 µM (inactive) | > 100 µM (inactive) | 49.2 µM (inactive) | > 100 µM (inactive) | > 100 µM (inactive) | 7.82 µM (inactive) | > 100 µM (inactive) | – | 14.6 µM (inactive) | > 100 µM (inactive) | > 100 µM (inactive) | 43.6 µM (inactive) | 63.2 µM (inactive) | > 100 µM (inactive) | 30.7 µM (inactive) | 2.94 µM (inactive)
13 | OCC1OC(O[C@H]2CN3[C@H](O)[C@@H](O)[C@H](O)[C@H]3C2O)C(O)C(O)C1O (stereo partly specified) | > 100 µM (inactive) | > 100 µM (inactive) | > 100 µM (inactive) | > 100 µM (inactive) | > 100 µM (inactive) | > 100 µM (inactive) | > 100 µM (inactive) | > 100 µM (inactive) | > 100 µM (inactive) | > 100 µM (inactive) | > 100 µM (inactive) | – | > 100 µM (inactive) | > 100 µM (inactive) | > 100 µM (inactive) | > 100 µM (inactive) | > 100 µM (inactive) | > 100 µM (inactive) | > 100 µM (inactive) | > 100 µM (inactive)
14 | COc1ccc(N2C(=O)C3c4[nH]c5ccc(F)cc5c4C4CCC(c5ccccc5)CC4C3C2=O)cc1 (stereo unspecified) | 8.18 µM (inactive) | 18.3 µM (inactive) | 32.8 µM (inactive) | 5.81 µM (inactive) | 31.1 µM (inactive) | 8.38 µM (inactive) | 38.3 µM (inactive) | 26.7 µM (inactive) | 16 µM (inactive) | 24.3 µM (inactive) | 31 µM (inactive) | – | 3.44 µM (inactive) | 39.9 µM (inactive) | 14.2 µM (inactive) | 16.6 µM (inactive) | 15.3 µM (inactive) | 10.8 µM (inactive) | 18.7 µM (inactive) | 39.3 µM (inactive)
15 | CN(C(=O)c1ccncc1)c1ccccc1 | > 100 µM (inactive) | > 100 µM (inactive) | > 100 µM (inactive) | > 100 µM (inactive) | > 100 µM (inactive) | > 100 µM (inactive) | > 100 µM (inactive) | > 100 µM (inactive) | > 100 µM (inactive) | > 100 µM (inactive) | > 100 µM (inactive) | – | > 100 µM (inactive) | > 100 µM (inactive) | > 100 µM (inactive) | > 100 µM (inactive) | > 100 µM (inactive) | > 100 µM (inactive) | > 100 µM (inactive) | > 100 µM (inactive)
16 | C[C@H]1CC[C@@]2(OC1)O[C@H]1C[C@H]3[C@@H]4CC[C@@H]5C[C@@H](OC6OC(CO)C(O)C(O)C6OC6OC(CO)C(O)C(O)C6O)CC[C@]5(C)[C@H]4CC[C@]3(C)[C@H]1[C@@H]2C (stereo partly specified) | 1.84 µM (inactive) | 1.81 µM (inactive) | 1.9 µM (inactive) | 2.3 µM (inactive) | 1.9 µM (inactive) | 1.77 µM (inactive) | 2.16 µM (inactive) | 2.15 µM (inactive) | 2 µM (inactive) | 2.08 µM (inactive) | 2.22 µM (inactive) | – | 2.07 µM (inactive) | 2.02 µM (inactive) | 2.13 µM (inactive) | 2.15 µM (inactive) | 2.09 µM (inactive) | 2.44 µM (inactive) | 2.1 µM (inactive) | 1.99 µM (inactive)
